Results: publication PMC12154443, “Design, Synthesis, Anti-Tumor Activity and Molecular Docking Studies of Novel Triphenylphosphine-Containing Formononetin Derivatives” (International Journal of Molecular Sciences, 2025)
Read-outs that look alike come from different tables or passages of the source.

Tests used:
[1] = system: human gastric cancer cells (HGC-27); assay: MTT cell viability assay, HGC-27; type: cell-based; conditions: 48 h, HGC-27 cells, read-out: half inhibitory concentration (IC50), HGC-27
Protocol: (§1) The human embryonic kidney cells (HEK-293), human non-small-cell lung cancer (A549), human breast cancer cells (MCF-7), and human prostate cancer (PC-3M) cells used in this study were obtained from the Beijing BNCC Biotechnology Research Institute (Beijing, China), and human gastric cancer cells (HGC-27) were obtained from Dalian Meilun Biotechnology Co., Ltd. (Dalian, China).
(§2) The cell lines used in this study (A549, MCF-7, PC-3M, HGC-27, HEK-293) were removed from the CO2 incubator and seeded into 96-well plates at a density of 5 × 10^4/mL. Following a 24-h incubation period under standard CO2 conditions, we added […] of sample solutions at various concentrations ([…], 12.5, 25, 50, 100 μmol/L) to each well. Each concentration was tested in six replicates. The control group received 0.1% DMSO in serum-free medium (SFM). After 48 h of the drug effect, 10 µL of MTT solution was added to each well under light-avoidance conditions, and incubation was continued under light-avoidance conditions for 4 h; the supernatant was discarded, and 150 μL of DMSO was added to dissolve the resulting formazan crystals. After 10 min of shaking to ensure the complete dissolution and uniform color development of purple crystals, the absorbance (OD) was measured at 490 nm using a microplate reader.
(§3) The inhibition rate was calculated as: Inhibition rate (%) = [(OD value of control group-OD value of administered group)/(OD value of control group-OD value of zeroing group)] × 100%, where OD value of zeroing group represents the zeroing group.
(§4) The IC50 values of the drugs were calculated by fitting using GraphPad Prism v.6.01 (GraphPad Software, San Diego, CA, USA), and it was used as a criterion for selecting the appropriate drug concentration for subsequent experiments.

[2] = system: human embryonic kidney cells (HEK-293); assay: MTT cell viability assay, normal HEK-293 cells; type: cell-based; conditions: HEK293, 48 h, read-out: half inhibitory concentration (IC50), HEK-293
Protocol: as §1, §2, §3, §4

[3] = system: human non-small-cell lung cancer (A549); assay: MTT cell viability assay, A549; type: cell-based; conditions: A549 cells; for IC50: Homo sapiens, MTT, 48 h, read-out: half inhibitory concentration (IC50), A549; for increase in cytostatic effect relative to formononetin: from IC50 values
Protocol: The human embryonic kidney cells (HEK-293), human non-small-cell lung cancer (A549), human breast cancer cells (MCF-7), and human prostate cancer (PC-3M) cells used in this study were obtained from the Beijing BNCC Biotechnology Research Institute (Beijing, China), and human gastric cancer cells (HGC-27) were obtained from Dalian Meilun Biotechnology Co., Ltd. (Dalian, China). […] Each concentration was tested in six replicates. The control group received 0.1% DMSO in serum-free medium (SFM). […] The inhibition rate was calculated as: Inhibition rate (%) = [(OD value of control group-OD value of administered group)/(OD value of control group-OD value of zeroing group)] × 100%, where OD value of zeroing group represents the zeroing group.

[4] = system: human prostate cancer (PC-3M) cells; assay: MTT cell viability assay, PC-3M; type: cell-based; conditions: 48 h, read-out: half inhibitory concentration (IC50), PC-3M
Protocol: as §1, §2, §3, §4

[5] = system: human breast cancer cells (MCF-7); assay: MTT cell viability assay, MCF-7; type: cell-based
Protocol: as §1, §2, §3, §4

[6] = Solubility observed during the experimental process; type: physicochemical; conditions: room temperature, formononetin in water, methanol, ethanol, acetone, tetrahydrofuran, ethyl acetate, dichloromethane, chloroform, derivatives in acetate
Protocol: Therefore, using procedures reported in the previous studies, we employed a molar ratio of 1:3 between the intermediate and triphenylphosphine. […] For the synthesis of fatty acid esters, dichloromethane was employed as the reaction solvent, and a 1.5-fold molar excess of the corresponding acid was added. The reaction was conducted over a 1–4 h period, which enabled the complete conversion of formononetin and maximum yield. […] The introduction of triphenylphosphine […].

[7] = MCF7, 48 h, MCF-7 cells, read-out: half inhibitory concentration (IC50), MCF-7
[8] = MCF7, MCF-7 cells, read-out: IC50 against MCF-7 cells

Row | SMILES | IC50 [1] [µM] | IC50 [3] [µM] | IC50 [4] [µM] | IC50 [5, 7] [µM] | IC50 [5, 8] [µM] | solubility (observation) [6] | IC50 [2] [µM] | increase in cytostatic effect relative to formononetin [3] [fold]
1 | COc1ccc(-c2coc3cc(OC(=O)CCCCCBr)ccc3c2=O)cc1 [1a, 7-O-(6-bromohexanoyl)-formononetin] | 83.3 ± 8.32 | – | – | – | – | – | 83.4 ± 8.61 | –
2 | COc1ccc(-c2coc3cc(OC(=O)CCCCCCBr)ccc3c2=O)cc1 [1b, 7-O-(7-bromoheptanoyl)-formononetin] | 79.1 ± 5.65 | – | – | – | – | – | 70.7 ± 5.61 | –
3 | COc1ccc(-c2coc3cc(OC(=O)CCCCCCCBr)ccc3c2=O)cc1 [1c, 7-O-(8-bromooctanoyl)-formononetin] | 31.4 ± 4.93 | > 100 | – | – | – | – | 68 ± 5.33 | –
4 | COc1ccc(-c2coc3cc(OC(=O)CCCCCCCCBr)ccc3c2=O)cc1 [1d, 7-O-(9-bromononanoi)-formononetin] | 79.2 ± 9.27 | 86.2 ± 6.1 | – | – | – | – | 74.4 ± 4.28 | –
5 | COc1ccc(-c2coc3cc(OC(=O)CCCCCCCCCBr)ccc3c2=O)cc1 [1e, 7-O-(10-bromodecanoyl)-formononetin] | 66.1 ± 7.33 | 65.4 ± 5.01 | 84 ± 11 | – | – | – | 95.1 ± 7.97 | –
6 | COc1ccc(-c2coc3cc(OC(=O)CCCCCCCCCCBr)ccc3c2=O)cc1 [1f, 7-O-(11-bromoundecanoyl)-formononetin] | 55.6 ± 2.43 | 74.6 ± 11.4 | – | – | – | – | 95.7 ± 8.09 | –
7 | COc1ccc(-c2coc3cc(OC(=O)CCCCCCCCCCCBr)ccc3c2=O)cc1 [1g, 7-O-(12-bromododecanoyl)-formononetin] | 95.5 ± 6.23 | 53.6 ± 5.15 | > 100 | – | – | – | 59.9 ± 7.79 | –
8 | COc1ccc(-c2coc3cc(OC(=O)CCCCC[P+](c4ccccc4)(c4ccccc4)c4ccccc4)ccc3c2=O)cc1 [2a, 7-O-(6-bromohexanoyl)-formononetin-triphenylphosphine coupling] | 13.4 ± 2.77 | 28.8 ± 2.45 | 55.2 ± 4.4 | 72.8 ± 6.25 | – | – | 44.8 ± 2.39 | –
9 | COc1ccc(-c2coc3cc(OC(=O)CCCCCC[P+](c4ccccc4)(c4ccccc4)c4ccccc4)ccc3c2=O)cc1 [2b, 7-O-(7-bromoheptanoyl)-formononetin-triphenylphosphine coupling] | 32.1 ± 5.96 | 42.2 ± 3.69 | 69.2 ± 3.98 | 46.5 ± 4.94 | – | – | 46.2 ± 3.99 | –
10 | COc1ccc(-c2coc3cc(OC(=O)CCCCCCC[P+](c4ccccc4)(c4ccccc4)c4ccccc4)ccc3c2=O)cc1 [2c, 7-O-(8-bromooctanoyl)-formononetin-triphenylphosphine coupling] | 18.6 ± 1.6 | 12.2 ± 1.52 | 21.7 ± 1.25 | 42.6 ± 9.44 | – | – | 77 ± 8.26 | ~7
11 | COc1ccc(-c2coc3cc(OC(=O)CCCCCCCC[P+](c4ccccc4)(c4ccccc4)c4ccccc4)ccc3c2=O)cc1 [2d, 7-O-(9-bromononanoyl)-formononetin-triphenylphosphine coupling] | 29.1 ± 2.58 | 31.2 ± 4.4 | 67 ± 6.97 | 56.8 ± 4.04 | – | – | 47 ± 8.41 | –
12 | COc1ccc(-c2coc3cc(OC(=O)CCCCCCCCC[P+](c4ccccc4)(c4ccccc4)c4ccccc4)ccc3c2=O)cc1 [2e, 7-O-(10-bromodecanoyl)-formononetin-triphenylphosphine coupling] | 39.2 ± 2.68 | 39 ± 1.65 | 97.9 ± 6.33 | 85.5 ± 4.99 | – | – | 64 ± 3.47 | –
13 | COc1ccc(-c2coc3cc(OC(=O)CCCCCCCCCC[P+](c4ccccc4)(c4ccccc4)c4ccccc4)ccc3c2=O)cc1 [2f, 7-O-(11-bromoundecanoyl)-formononetin-triphenylphosphine coupling] | 30.4 ± 2.12 | 20.6 ± 1.21 | 27.9 ± 2.69 | 52.3 ± 6.85 | – | – | 51.7 ± 5.48 | ~7
14 | COc1ccc(-c2coc3cc(OC(=O)CCCCCCCCCCC[P+](c4ccccc4)(c4ccccc4)c4ccccc4)ccc3c2=O)cc1 [2g, 7-O-(12-bromododecanoyl)-formononetin-triphenylphosphine coupling] | 29.4 ± 2.52 | 23.6 ± 2.25 | 41.2 ± 4.4 | 46.6 ± 4.95 | – | – | 59.6 ± 5.65 | ~7
15 | O=c1[nH]cc(F)c(=O)[nH]1 [5-FU, 5-fluorouracil, reference compound] | 36.2 ± 3.02 | 22.9 ± 3.54 | 48.1 ± 3.76 | – | > 100 | – | > 100 | –
16 | COc1cccc2c1C(=O)c1c(O)c3c(c(O)c1C2=O)C[C@@](O)(C(=O)CO)C[C@@H]3O[C@H]1C[C@H](N)[C@H](O)[C@H](C)O1 [DOX, doxorubicin, reference compound] | 5.97 ± 0.43 | 15.4 ± 1.06 | 0.168 ± 0.06 | 13.2 ± 0.43 | – | – | – | –
17 | COc1ccc(-c2coc3cc(O)ccc3c2=O)cc1 [FMN, formononetin] | 29.6 ± 1.17 | 83 ± 6.25 | 76.4 ± 6.47 | – | > 100 | almost no solubility | 39.6 ± 3.26 | –

Further lines, with some results ahead:

Row | IC50 [1] [µM] | IC50 [3] [µM] | IC50 [4] [µM] | IC50 [5, 7] [µM] | IC50 [5, 8] [µM] | solubility (observation) [6] | SMILES | IC50 [2] [µM] | increase in cytostatic effect relative to formononetin [3] [fold]
18 | 49.5 ± 3.35 | – | 62 ± 8.71 | – | – | – | CCCCCC(=O)Oc1ccc2c(=O)c(-c3ccc(OC)cc3)coc2c1 [3a, 7-O-hexanoyl-formononetin] | – | –
19 | 65.4 ± 3.88 | 96.4 ± 7.37 | – | – | – | – | CCCCCCC(=O)Oc1ccc2c(=O)c(-c3ccc(OC)cc3)coc2c1 [3b] | – | –
20 | 60 ± 7.82 | 83 ± 5.89 | – | – | – | – | CCCCCCCC(=O)Oc1ccc2c(=O)c(-c3ccc(OC)cc3)coc2c1 [3c, 7-O-octanoyl-formononetin] | – | –
21 | 80.2 ± 4.8 | 78.1 ± 6.21 | 58.3 ± 5.36 | – | – | – | CCCCCCCCC(=O)Oc1ccc2c(=O)c(-c3ccc(OC)cc3)coc2c1 [3d, 7-O-nonanoyl-formononetin] | 78.3 ± 9.74 | –
22 | 48.6 ± 5.3 | 74 ± 11.9 | – | – | – | – | CCCCCCCCCC(=O)Oc1ccc2c(=O)c(-c3ccc(OC)cc3)coc2c1 [3e, 7-O-n-decanoyl-formononetin] | – | –
23 | 45.4 ± 5.24 | 70.1 ± 9.67 | 46.7 ± 9.24 | 85 ± 5.74 | – | – | CCCCCCCCCCC(=O)Oc1ccc2c(=O)c(-c3ccc(OC)cc3)coc2c1 [3f, 7-O-undecanoyl-formononetin] | 75 ± 5.49 | –
24 | – | 66.9 ± 9.7 | 50.4 ± 5.78 | 67.8 ± 8.92 | – | – | CCCCCCCCCCCC(=O)Oc1ccc2c(=O)c(-c3ccc(OC)cc3)coc2c1 [3g, 7-O-dodecanoyl-formononetin] | 50.4 ± 6.13 | –
